# Data published in patent US8222240B2, “Use of substituted cyclopropane acid derivatives for producing drugs for use in the treatment of metabolic syndrome” (Sanofi-Aventis Deutschland GmbH, priority 2004, dated 2012).
# Key:
# [1] = target: T1, GPCR HM74A (niacin receptor) (Homo sapiens, UniProt Q8TDS4); assay: FLIPR in vitro functional assay, intracellular Ca2+ in recombinant HEK293 cells expressing HM74A and hybrid G-protein; format: cell-based; conditions: relative to 1 μM niacin = 100%
# T1 construct: expressed in transfected cells; host or cells: HEK293
# T1 sequence (Q8TDS4 whole entry): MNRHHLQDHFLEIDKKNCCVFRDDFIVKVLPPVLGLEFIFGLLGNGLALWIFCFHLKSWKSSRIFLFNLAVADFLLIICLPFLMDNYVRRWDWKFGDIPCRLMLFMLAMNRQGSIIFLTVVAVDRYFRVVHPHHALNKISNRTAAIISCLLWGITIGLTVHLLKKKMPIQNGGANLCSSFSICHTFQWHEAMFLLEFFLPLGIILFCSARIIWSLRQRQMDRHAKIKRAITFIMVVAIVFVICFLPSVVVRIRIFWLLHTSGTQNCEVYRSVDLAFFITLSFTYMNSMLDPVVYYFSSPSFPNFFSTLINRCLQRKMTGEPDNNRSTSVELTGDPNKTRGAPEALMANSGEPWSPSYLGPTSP
# Protocol: in vitro functional assays with recombinant cells; function-testing assays were carried out by means of the FLIPR technique (“Fluorescence Imaging Plate Reader”, Molecular Devices Corp.).
# For the investigations, cells were seeded into 96-well microtiter plates (60 000 cells/well) and allowed to grow over night. The medium was removed and the cells were incubated in buffer which contained the fluorescent dye Fluo-4. After this loading with dye, the cells were washed, test substance was added, and changes in the intracellular Ca^2+ concentration were measured in the FLIPR apparatus.
# [2] = test system: lipolysis; assay: Inhibition of lipolysis on the whole animal (plasma FFA, glycerol, triglycerides after p.o. administration); format: in vivo, Wistar rats; set-up: FFA / Glycerol / Triglyceride: unit not given here; conditions: for FFA / Glycerol / Triglyceride: 3 mg/kg po, Wistar rats
# Protocol: The effect was tested on the whole animal (mouse, rat, hamster or dog), after a fasting period (e.g. of about 16 hours the substance is administered (e.g. p.o., iv., i.p., s.c.) and, with or without additional stimulation of endogenous lipolysis (e.g. by a bolus injection of 2 mg/kg i.p. isoprenaline), the effect of the test substance on lipolysis was determined on the basis of the liberated free fatty acids (FFA), glycerol and triglycerides by obtaining a blood sample (e.g. by retroorbital blood sampling) e.g. 15 min, 30, 60, 120 etc minutes after p.o. administration, and analyzing by standard methods of clinical chemistry (e.g. L. Thomas: Labor und Diagnose, 2nd edition, Medizinische Verlagsgesellschaft, Marburg/L. 1984; ISBN 3-921320-10-9)). The inhibition of lipolysis by the inhibitors is analyzed by comparing with the rate of lipolysis in correspondingly treated control animals.
Structure (SMILES),EC50 [1] [nM],also measured
"COC(=O)[C@@H]1C[C@H]1C(=O)O (racemic) [Example 7, 1RS-Methoxycarbonyl-2RS-hydroxycarbonyl-cyclopropane]",630,–
"COC(=O)[C@H]1[C@H](C(=O)O)C1(C)C (racemic) [Example 9, 1RS-Methoxycarbonyl-2RS-hydroxycarbonyl-3,3-dimethyl-cyclopropane]",> 30000,–
"CCOC(=O)[C@@H]1C[C@H]1C(=O)O (racemic) [Example 10, 1RS-Ethoxycarbonyl-2RS-hydroxycarbonyl-cyclopropane]",1480,–
"CCCOC(=O)[C@@H]1C[C@H]1C(=O)O (racemic) [Example 11, 1RS-Propoxycarbonyl-2RS-hydroxycarbonyl-cyclopropane]",2160,–
"CCCCOC(=O)[C@@H]1C[C@H]1C(=O)O (racemic) [Example 12, 1RS-Butoxycarbonyl-2RS-hydroxycarbonyl-cyclopropane]",670,–
"CCCCCOC(=O)[C@@H]1C[C@H]1C(=O)O (racemic) [Example 13, 1RS-Pentoxycarbonyl-2RS-hydroxycarbonyl-cyclopropane]",1610,–
"CC(C)OC(=O)[C@@H]1C[C@H]1C(=O)O (racemic) [Example 14, 1RS-iso-Propoxycarbonyl-2RS-hydroxycarbonyl-cyclopropane]",> 30000,–
"O=C(O)[C@@H]1C[C@H]1C(=O)OCC1CCCCC1 (racemic) [Example 15, 1RS-Cyclohexyl-methyloxycarbonyl-2RS-hydroxycarbonyl-cyclopropane]",> 30000,–
"CC(C)COC(=O)[C@@H]1C[C@H]1C(=O)O (racemic) [Example 16, 1RS-isobutoxycarbonyl-2RS-hydroxycarbonyl-cyclopropane]",> 30000,–
"C=CCOC(=O)[C@@H]1C[C@H]1C(=O)O (racemic) [Example 17, 1RS-allyloxycarbonyl-2RS-hydroxycarbonyl-cyclopropane]",2830,–
"C#CCOC(=O)[C@@H]1C[C@H]1C(=O)O (racemic) [Example 18, 1RS-Propargyloxycarbonyl-2RS-hydroxycarbonyl-cyclopropane]",1510,–
"CC#CCOC(=O)[C@@H]1C[C@H]1C(=O)O (racemic) [Example 19, 1RS-Butinyloxycarbonyl-2RS-hydroxycarbonyl-cyclopropane]",1630,–
"CC(C)(C)OC(=O)[C@H]1[C@H](C(=O)O)C1(C)C (racemic) [Example 20, 1RS-tertButoxycarbonyl-2RS-hydroxycarbonyl-3,3-dimethyl-cyclopropane]",> 30000,–
"COC(=O)[C@H]1C[C@@H]1C(=O)OC (relative stereo) [Example 5, Dimethyl trans-1,2-cyclopropanedicarboxylate]",> 30000,"FFA ([2]; Time 0): 0.47; Glycerol ([2]; Time 0): 87; Triglyceride ([2]; Time 0): 0.45; FFA ([2]; Time 15): 0.17; Glycerol ([2]; Time 15): 39; Triglyceride ([2]; Time 15): 0.45; FFA ([2]; Time 30): 0.13; Glycerol ([2]; Time 30): 33; Triglyceride ([2]; Time 30): 0.26; FFA ([2]; Time 60): 0.11; Glycerol ([2]; Time 60): 28; Triglyceride ([2]; Time 60): 0.15; FFA ([2]; Time 120): 0.25; Glycerol ([2]; Time 120): 57; Triglyceride ([2]; Time 120): 0.13; lipolysis (reduction in free fatty acids (FFA), glycerol and triglycerides) ([2]; doses of from 0.3 to 30 mg/kg po): distinctly reduced"
"COC(=O)[C@H]1C[C@]1(C)C(=O)OC (relative stereo) [Example 6, Dimethyl 1-methyl-trans-cyclopropane-1,2-dicarboxylate]",> 30000,–
"CCOC(=O)[C@@H]1C[C@H]1C(=O)OCC (relative stereo) [Example 8, Diethyl trans-1,2-cyclopropanedicarboxylate]",> 30000,–
"COC(=O)[C@@H]1C[C@H]1C(=O)O [Example 1, 1R-Methoxycarbonyl-2R-hydroxycarbonyl-cyclopropane]",70,–
"COC(=O)[C@@H]1C[C@H]1C(=O)O [Example 2, 1R-Methoxycarbonyl-2R-hydroxycarbonyl-cyclopropane]",130,–
"COC(=O)[C@@H]1C[C@H]1C(=O)O [Example 3, 1R-Methoxycarbonyl-2R-hydroxycarbonyl-cyclopropane]",190,–
"COC(=O)[C@H]1C[C@H]1C(=O)OC [Example 4, Dimethyl cis-1,2-cyclopropanedicarboxylate]",> 30000,–
